Consider one molecule from patent US20220364056A1, “SHORT-CHAIN FATTY ACID PENTANOATE AS ENHANCER FOR CELLULAR THERAPY AND ANTI-TUMOR THERAPY” (PHILIPPS-UNIVERSITÄT MARBURG, priority 2019, published 2022).

For experiment [1], the system named is CD8+ cytotoxic T lymphocytes (CTLs). Kind of experiment: murine CTLs cultivated under suboptimal conditions with SCFAs; cytokines and effector molecules by flow cytometry and ELISA. Format: cell-based. The source says:
It is known that the glycolytic metabolic pathway promotes IFN-γ expression and T cell effector function. […] We next investigated if acetylation of H4 was increased at CTL-characteristic loci (Ifnγ, Tbx21 and Eomes) after treatment of CTLs with pentanoate. […] Due to the high level of heterogeneity and plasticity within T lymphocytes, we next investigated possible effects of pentanoate on other CD8^+ T cell subtypes. […] To gain further insight into possible therapeutic strategies, we next investigated the impact of pentanoate on human CD8^+ T lymphocytes.
(A) Experimental design for the treatment of CTLs with the water-soluble fraction of intestinal content derived from SPF or GF mice. (B and C) Frequencies of IFN-γ- and TNF-α-producing CTLs treated with the extract from luminal content derived from indicated organs. Representative results of two experiments are shown (n=3). (D) ELISA was performed to measure the secretion of TNF-α by CLTs treated as shown in (A). (E) Quantitative measurement of total SCFA amounts in fecal samples of SPF and GF mice (n=5). (F and G) The percentage of IFN-γ^+ TNF-α^+ CTLs treated with the indicated SCFAs for three days (n=3, one of three independent experiments is shown). (H) The secretion of TNF-α from CTLs treated with SCFAs was determined by ELISA (n=3, one of two independent experiments is shown). (I) The fluorogenic HDAC assay was applied to measure the HDAC inhibitory activity of SCFAs on CTLs. The value for unstimulated CTLs was arbitrarily set to 1.0. Four independent experiments were performed. (J and K) Representative contour plots (J) and bar graphs (K) showing the frequency of IFN-γ+ and TNF-α+ cells after pentanoate (2 mM) or VPA (0.5 mM) administration. Three similar experiments were performed. (L and M) The frequency of Eomes- and T-bet-expressing CTLs treated with pentanoate (2 mM) or VPA (0.5 mM) for three days was analyzed by flow cytometry (n=4). (N) ChIP assay showing the acetylation of histone H4 at the promoter regions of Ifnγ and Eomes genes after 24 hours of treatment of CTLs with pentanoate. Data are from pooled chromatin of three mice.
Representative histogram plots (A) and bar graphs (B) are showing the frequency of Annexin V^+ cells. Three similar experiments were performed. (C) Representative effector molecule staining of CD8^+ T cells polarized under suboptimal CTL-inducing conditions, treated with pentanoate or TSA (10 nM Sigma-Aldrich) in presence of 2-DG (1 mM, Sigma-Aldrich) or rapamycin (100 nM, Sigma-Aldrich) for 3 days. Three independent experiments were performed. (D) Western blot analysis of H3Ac and H4Ac in CD8^+ T cells treated with SCFAs for 3 days. (E) Pan-H4Ac ChIP qPCR analysis for Tbx21 promoter accessibility in pentanoate-treated CTLs. Data are from pooled chromatin of three mice. (F and G) CD8^+ T cells isolated from WT and Tbx21^−/− mice were polarized under suboptimal CTL-inducing conditions in presence of increasing pentanoate concentrations. Representative contour plots (F) and bar graphs (G) show the frequency of IFN-γ+ and IL-17A^+ cells. Two similar experiments were performed. […]
In general terms: A flow cytometer gives signals particle by particle.

A further experiment concerns STAT5. The experiment in a line: IL-2-induced phosphorylation of STAT5 in CTLs, flow cytometry. The format is cell-based, murine. As to conditions: CTLs generated with pentanoate 3 day, IL-2 50 U/ml. The source says: (A) experimental setup for investigating CTL persistence in vivo is shown. (B-D) The frequency (B, C) and total cell numbers (D) of transferred T cells (WT CD45.1^+ CTLs, WT CD45.2^+ pentanoate-treated CTLs and Foxp3^+CD45.2^+ Tregs from FIR×tiger mice) in Rag1-deficient mice on days 15 after the adoptive transfer are shown. The co-transferred Foxp3^−CD4^+ cells were excluded from the gate (B, C). In D, n=_3 mice/group/experiment, data from 2 pooled independent experiments are shown. (E) The CFSE label of transferred T cells (WT CD45.1 CTLs, WT CD45.2^+ pentanoate-treated CTLs and CD45.2^+CD4^+ T cells) in Rag1-deficient mice on days 4 after the adoptive transfer are shown (n=3 mice/group/experiment, data pooled from 2 independent experiments are shown). […] (G and H) Frequencies and cell numbers of CD25^+ CD8^+ T cells were analysed by flow cytometry on day 15 after transfer of control CTLs (CD45.1^+) and pentanoate-treated CTLs (CD45.2^+) into Rag1-deficient mice (n=3 mice/group/experiment, data pooled from 2 independent experiments). […] The phosphorylated (p)-STAT5 levels were analysed by flow cytometry (n=5, performed in 3 independent experiments). (J) The secretion of IL-2 in pentanoate-treated CTLs cultured for indicated time points was measured by ELISA (n=4, pooled from 2 independent experiments).

Take `CCCCC(=O)O` [pentanoate]: the “frequencies of TNF-α+ IFN-γ+ cells” value in experiment [1] (CTLs, suboptimal conditions, SCFAs for three days) was “substantial increase”. Moreover, the “secretion of TNF-α by CTLs” value in experiment [1] (ELISA, CTLs treated with SCFAs) was “substantial increase”. The “secretion of IL-2 by CTLs” value in experiment [1] (ELISA, indicated time points) is “robustly produced IL-2 in a prolonged manner”. Besides, the “production of IFN-γ by T-bet-deficient CTLs” value in experiment [1] (Tbx21-/- vs WT, increasing pentanoate concentrations) is “partially defective production”. The “expression of TNF-α and IFN-γ in CTLs” value in experiment [1] (pentanoate 2 mM or VPA 0.5 mM) is recorded as “potently enhanced”. Also, the “CTL-related transcription factors T-bet and Eomes in CD8+ T cells” value in experiment [1] (pentanoate 2 mM or VPA 0.5 mM, three days) is recorded as “strongly induced”. The “reversal of the effect on granzyme B+IFN-γ+ cells by rapamycin” value in experiment [1] (rapamycin 100 nM co-treatment) is recorded as “could not be reversed”. Besides, the “percentage of CD25+IFN-γ+ cells in in vitro generated CTLs” value in experiment [1] (three days) was “strongly enhanced”. The “percentages of granzyme B+IFN-γ+ CD8+ T cells” value in experiment [1] (vs control CTLs, TSA 10 nM, 3 days) was “substantially enhanced”. Further, in the experiment with STAT5, the “STAT5 activity in response to IL-2” value was “stronger STAT5 activity”.
